# Data reported in a melting point compilation (Tetko et al.; mined from patent text by program, amines drawn as free bases though some values may be those of a salt).
row,Compound,melting point
1,O=C(O)CCc1c(C=C2C(=O)Nc3ccc(Br)cc32)[nH]c2c1CCCC2,286 to 289 °C
2,COc1cc2onc(C3CCN(c4c(C)[nH]c5ccccc45)CC3)c2cc1OC,176 to 178 °C
3,CC1COC(=O)N1c1cc(-c2ncnc(Nc3cccc(Cl)c3)n2)ccn1 (stereo unspecified),191 to 193 °C
4,CCOC(=O)C1=C(C)NC(C)=C(C(=O)OCCBr)C1c1cccc([N+](=O)[O-])c1 (stereo unspecified),158 to 159 °C
5,O=C(NCc1ccc(Cl)cc1)c1cnc2c(F)cc(C#CCO)cc2c1O,277 to 279 °C
6,CCNC(=O)N[C@H]1CC[C@H](CCN2CCN(c3cccc4c3CCC4)CC2)CC1,198 to 200 °C
7,N#CCCc1cccc(-c2ccc3cnc(Nc4ccc5c(c4)CCC(N4CCOCC4)CC5)nn23)c1 (stereo unspecified),184 to 186 °C
8,CNC(=S)C1(c2cccnc2)CCCCCC1=O (stereo unspecified),144 to 146 °C
9,COCCOc1cc2ncnc(NC3=CC(=O)C(Oc4cccnc4)=CC3=O)c2cc1OC,189 to 190 °C
10,CNC(=O)c1ccccc1Nc1nc(Nc2cccc3c2N(C)CCNC3=O)ncc1Cl,282 to 284 °C
11,O=C(NCCCc1ccncc1)N(CCC12CC3CC(CC(C3)C1)C2)Cc1cccs1,142 to 144 °C
12,CCCCCCCCCCCCSc1nnn(C(C(N)=O)(c2ccccc2)c2c(C(C)C)cccc2C(C)C)n1 (stereo unspecified),102 to 105 °C
13,Cc1ccc(Cn2c(=O)c3c(N4CCN(C)CC4)cc(Cl)cc3n(Cc3ccccc3)c2=O)o1,132 to 136 °C
14,OCC1OC(n2cnc3c(NCc4cccc(O)c4)ncnc32)C(O)C1O (stereo unspecified),196 °C
15,CN1C(=O)C2C3C=CC(C3)C2(c2ccc3c(c2)CCCC3)C1=O (stereo unspecified),78 to 86 °C
16,Clc1ccc2c(Nc3ccccc3)ncnc2c1,215 to 217 °C
17,O=S1(=O)c2ccccc2Nc2c1c(O)c(O)c1ccccc21,330 °C
18,CC(C)(O)C(=O)c1ccc(F)cc1,131 °C

row,Compound,melting point
1,COCCn1cc2c(C3C(=O)Nc4ccc(Br)cc43)nc(NCCC3CCCNC3)nc2n1 (stereo unspecified),270 to 273 °C
2,CC(C)CCCC(C)Cc1nc2c3cc(Br)sc3c3sc(Br)cc3c2nc1CC(C)CCCC(C)C (stereo unspecified),106 to 108 °C
3,Cc1oc(-c2ccc(F)cc2)cc1C(=O)Nc1cccc(CSCC(=O)O)c1,198 to 199 °C
4,CC(C)(C)OC(=O)NCCc1cccc(C(=O)Nc2ccc(Nc3cc(-c4cccc5c4oc4ccccc45)ncn3)cc2)c1,235 to 238 °C
5,CCCCCc1ccc(-c2c(C(C)C)ccc(CO)c2C(C)C)nc1,81 to 82 °C
6,COP(=O)(OC)C(CCc1cc(C)nc2c(C#N)c(C)nn12)P(=O)(OC)OC,100 to 101 °C
7,COc1cc(OC)cc(-c2oc3ncnc(NC4CCCCCC4)c3c2-c2ccccc2)c1,151 to 152 °C
8,CC(C)(Nc1ccc(OCc2ccccc2)cc1)C(=O)O,210 °C
9,CCC1OC(Cn2cncn2)(c2ccc(Cl)cc2Cl)OC1C (stereo unspecified),109 to 113 °C
10,CCCc1ccc(OCCC(C)C)cc1O,40 to 40.5 °C
11,O=C(OCC1CC1)c1ncn2c1[C@@H]1CCN1C(=O)c1c(I)cccc1-2,190 to 191 °C
12,CC(=O)Nc1ccc2c(c1)CC(CN1CCC(c3c[nH]c4cc(Cl)ccc34)CC1)C2 (stereo unspecified),151 to 152 °C
13,Cc1onc(NS(=O)(=O)c2ccccc2-c2ccc(-c3ncco3)cc2CN2CCC(C)(C)C2=O)c1C,110 to 117 °C
14,CC(=NOCCOc1ccc(CC2SC(=O)NC2=O)cc1)c1ccc(-c2ccc3c(c2)OCO3)cc1 (stereo unspecified),137 to 139 °C
15,CCCc1nc(C(O)C(C)(C)C)c(C#N)n1Cc1ccc(-c2ccccc2-c2nnnn2C(c2ccccc2)(c2ccccc2)c2ccccc2)cc1 (stereo unspecified),115 to 117 °C
16,Nc1ncccc1-c1nc2ccc(Cl)nc2n1-c1ccc(CNC(=O)c2cccc(F)c2)cc1,240 to 243 °C
17,COc1ccc(-c2nnc3c4ccccc4c(Nc4ccc(C#N)cc4)nn23)cc1,314 °C
18,O=C(Nc1cccc(-c2ncno2)c1)Oc1ccc([N+](=O)[O-])cc1,195 to 197 °C
